Activity calls are given as the source filed them. The rule behind the calls is not given here.
Tested on: rodent lifetime carcinogenesis bioassay, tumor incidence TD50
Test: chronic cancer bioassays in animals – CPDB, compiled studies (AID 1745844)
[1] = mouse, strain B6C3F1, males, in feed, site: any site (literature study), lesion: several types, types named in the paper, dosed 78 weeks, study length 95 weeks
[2] = mouse, strain B6C3F1, males, in feed, site: liver, lesion: hepatocellular adenoma + hepatocellular carcinoma + neoplastic nodule, dosed 78 weeks, study length 95 weeks

## Cc1ccc([N+](=O)[O-])cc1N
mouse, strain B6C3F1, females, in feed, site: all sites + liver, lesion: hemangiosarcoma + hepatocellular carcinoma, dosed 78 weeks, study length 96 weeks
  TD50: 242 mg/kg/day
mouse, strain B6C3F1, females, in feed, site: all sites, lesion: hemangiosarcoma, dosed 78 weeks, study length 96 weeks
  TD50: 1860 mg/kg/day
mouse, strain B6C3F1, females, in feed, site: any site (literature study), lesion: several types, types named in the paper, dosed 78 weeks, study length 96 weeks
  TD50: 989 mg/kg/day
mouse, strain B6C3F1, females, in feed, site: liver, lesion: hepatocellular adenoma + hepatocellular carcinoma + neoplastic nodule, dosed 78 weeks, study length 96 weeks
  TD50: 288 mg/kg/day
mouse, strain B6C3F1, females, in feed, site: liver, lesion: hepatocellular carcinoma, dosed 78 weeks, study length 96 weeks
  TD50: 288 mg/kg/day
mouse, strain B6C3F1, males, in feed, site: all sites + liver, lesion: hemangioma + hemangiosarcoma + hepatocellular carcinoma, dosed 78 weeks, study length 95 weeks
  TD50: 269 mg/kg/day
mouse, strain B6C3F1, males, in feed, site: all sites, lesion: hemangioma + hemangiosarcoma, dosed 78 weeks, study length 95 weeks
  TD50: 2550 mg/kg/day
[1]
  TD50: 431 mg/kg/day
[2]
  TD50: 266 mg/kg/day
mouse, strain B6C3F1, males, in feed, site: liver, lesion: hepatocellular carcinoma, dosed 78 weeks, study length 95 weeks
  TD50: 266 mg/kg/day
rat, strain Fischer 344, females, in feed, site: any site (literature study), lesion: several types, types named in the paper, dosed 78 weeks, study length 108 weeks
  carcinogen call: negative (inactive)
rat, strain Fischer 344, females, in feed, site: liver, lesion: hepatocellular adenoma + hepatocellular carcinoma + neoplastic nodule, dosed 78 weeks, study length 108 weeks
  TD50: 43 mg/kg/day
rat, strain Fischer 344, males, in feed, site: any site (literature study), lesion: several types, types named in the paper, dosed 78 weeks, study length 107 weeks
  TD50: 43.7 mg/kg/day
rat, strain Fischer 344, males, in feed, site: liver, lesion: hepatocellular carcinoma, dosed 78 weeks, study length 107 weeks
  TD50: 27.7 mg/kg/day (inactive)

## COc1cc2c(cc1N)oc1ccccc12
rat, strain Fischer, females, in feed, site: any site (literature study), lesion: malignant tumor, dosed 75 weeks, study length 75 weeks
  TD50: 33.1 mg/kg/day
rat, strain Fischer, females, in feed, site: external auditory canal, lesion: squamous-cell carcinoma, dosed 75 weeks, study length 75 weeks
  TD50: 43.9 mg/kg/day
rat, strain Fischer, females, in feed, site: mammary gland, lesion: adenocarcinoma, dosed 75 weeks, study length 75 weeks
  TD50: 205 mg/kg/day
rat, strain Fischer, females, in feed, site: urinary bladder, lesion: several types, types named in the paper, dosed 75 weeks, study length 75 weeks
  TD50: 25.7 mg/kg/day
rat, strain Fischer, females, in feed, site: urinary bladder, lesion: transitional-cell carcinoma, dosed 75 weeks, study length 75 weeks
  TD50: 43.9 mg/kg/day
rat, strain Fischer, males, in feed, site: any site (literature study), lesion: malignant tumor, dosed 75 weeks, study length 75 weeks
  TD50: 78.2 mg/kg/day
rat, strain Fischer, males, in feed, site: external auditory canal, lesion: squamous-cell carcinoma, dosed 75 weeks, study length 75 weeks
  TD50: 78.2 mg/kg/day
rat, strain Fischer, males, in feed, site: urinary bladder, lesion: several types, types named in the paper, dosed 75 weeks, study length 75 weeks
  TD50: 26.4 mg/kg/day
rat, strain Fischer, males, in feed, site: urinary bladder, lesion: transitional-cell carcinoma, dosed 75 weeks, study length 75 weeks
  TD50: 78.2 mg/kg/day
rat, strain Sprague-Dawley, females, in feed, site: any site (literature study), lesion: malignant tumor, dosed 75 weeks, study length 75 weeks
  TD50: 25.7 mg/kg/day
rat, strain Sprague-Dawley, females, in feed, site: external auditory canal, lesion: squamous-cell carcinoma, dosed 75 weeks, study length 75 weeks
  TD50: 61.9 mg/kg/day
rat, strain Sprague-Dawley, females, in feed, site: mammary gland, lesion: adenocarcinoma, dosed 75 weeks, study length 75 weeks
  TD50: 61.9 mg/kg/day
rat, strain Sprague-Dawley, females, in feed, site: urinary bladder, lesion: several types, types named in the paper, dosed 75 weeks, study length 75 weeks
  TD50: 43.9 mg/kg/day
rat, strain Sprague-Dawley, females, in feed, site: urinary bladder, lesion: transitional-cell carcinoma, dosed 75 weeks, study length 75 weeks
  TD50: 205 mg/kg/day
rat, strain Sprague-Dawley, males, in feed, site: any site (literature study), lesion: malignant tumor, dosed 75 weeks, study length 75 weeks
  TD50: 78.2 mg/kg/day
rat, strain Sprague-Dawley, males, in feed, site: kidney, lesion: squamous-cell carcinoma, dosed 75 weeks, study length 75 weeks
  TD50: 164 mg/kg/day
rat, strain Sprague-Dawley, males, in feed, site: urinary bladder, lesion: transitional-cell papilloma, dosed 75 weeks, study length 75 weeks
  TD50: 164 mg/kg/day
rat, strain Wistar, females, in feed, site: any site (literature study), lesion: malignant tumor, dosed 75 weeks, study length 75 weeks
  TD50: 43.9 mg/kg/day
rat, strain Wistar, females, in feed, site: liver, lesion: cystadenoma, dosed 75 weeks, study length 75 weeks
  TD50: 205 mg/kg/day
rat, strain Wistar, females, in feed, site: mammary gland, lesion: adenocarcinoma, dosed 75 weeks, study length 75 weeks
  TD50: 97.7 mg/kg/day
rat, strain Wistar, females, in feed, site: urinary bladder, lesion: several types, types named in the paper, dosed 75 weeks, study length 75 weeks
  TD50: 43.9 mg/kg/day
rat, strain Wistar, females, in feed, site: urinary bladder, lesion: transitional-cell carcinoma, dosed 75 weeks, study length 75 weeks
  TD50: 97.7 mg/kg/day
rat, strain Wistar, males, in feed, site: any site (literature study), lesion: benign tumor, dosed 84 weeks, study length 84 weeks
  TD50: 53.3 mg/kg/day
rat, strain Wistar, males, in feed, site: any site (literature study), lesion: malignant tumor, dosed 75 weeks, study length 75 weeks
  TD50: 26.4 mg/kg/day
rat, strain Wistar, males, in feed, site: any site (literature study), lesion: malignant tumor, dosed 84 weeks, study length 84 weeks
  carcinogen call: positive
rat, strain Wistar, males, in feed, site: external auditory canal, lesion: squamous-cell carcinoma, dosed 75 weeks, study length 75 weeks
  TD50: 78.2 mg/kg/day
rat, strain Wistar, males, in feed, site: kidney, lesion: squamous-cell carcinoma, dosed 75 weeks, study length 75 weeks
  TD50: 164 mg/kg/day
rat, strain Wistar, males, in feed, site: urinary bladder, lesion: several types, types named in the paper, dosed 75 weeks, study length 75 weeks
  TD50: 35.2 mg/kg/day
rat, strain Wistar, males, in feed, site: urinary bladder, lesion: several types, types named in the paper, dosed 84 weeks, study length 84 weeks
  carcinogen call: positive
rat, strain Wistar, males, in feed, site: urinary bladder, lesion: transitional-cell carcinoma, dosed 75 weeks, study length 75 weeks
  TD50: 78.2 mg/kg/day

## c1ccc(NNc2ccccc2)cc1
mouse, strain B6C3F1, females, in feed, site: any site (literature study), lesion: several types, types named in the paper, dosed 78 weeks, study length 95 weeks
  TD50: 31.5 mg/kg/day
mouse, strain B6C3F1, females, in feed, site: liver, lesion: hepatocellular adenoma + hepatocellular carcinoma + neoplastic nodule, dosed 78 weeks, study length 95 weeks
  TD50: 26 mg/kg/day
mouse, strain B6C3F1, females, in feed, site: liver, lesion: hepatocellular adenoma + hepatocellular carcinoma, dosed 78 weeks, study length 95 weeks
  TD50: 26 mg/kg/day
mouse, strain B6C3F1, females, in feed, site: liver, lesion: hepatocellular carcinoma, dosed 78 weeks, study length 95 weeks
  TD50: 29.7 mg/kg/day
mouse, strain B6C3F1, females, in feed, site: lung, lesion: alveolar/bronchiolar adenoma + alveolar/bronchiolar carcinoma, dosed 78 weeks, study length 95 weeks
  TD50: 8760 mg/kg/day
[1]
  carcinogen call: negative (inactive)
[2]
  TD50: 1090 mg/kg/day
rat, strain Fischer 344, females, in feed, site: any site (literature study), lesion: several types, types named in the paper, dosed 78 weeks, study length 106 weeks
  TD50: 4.5 mg/kg/day
rat, strain Fischer 344, females, in feed, site: liver + mammary gland, lesion: neoplastic nodule + adenocarcinoma, NOS, dosed 78 weeks, study length 106 weeks
  TD50: 6.74 mg/kg/day
rat, strain Fischer 344, females, in feed, site: liver, lesion: hepatocellular adenoma + hepatocellular carcinoma + neoplastic nodule, dosed 78 weeks, study length 106 weeks
  TD50: 18.1 mg/kg/day
rat, strain Fischer 344, females, in feed, site: liver, lesion: neoplastic nodule, dosed 78 weeks, study length 106 weeks
  TD50: 18.1 mg/kg/day
rat, strain Fischer 344, females, in feed, site: mammary gland, lesion: adenocarcinoma, NOS, dosed 78 weeks, study length 106 weeks
  TD50: 11.4 mg/kg/day
rat, strain Fischer 344, males, in feed, site: Zymbal's gland, lesion: squamous-cell carcinoma, dosed 78 weeks, study length 106 weeks
  TD50: 38.5 mg/kg/day
rat, strain Fischer 344, males, in feed, site: adrenal gland, lesion: pheochromocytoma, dosed 78 weeks, study length 106 weeks
  TD50: 16.2 mg/kg/day
rat, strain Fischer 344, males, in feed, site: any site (literature study), lesion: several types, types named in the paper, dosed 78 weeks, study length 106 weeks
  TD50: 6.85 mg/kg/day
rat, strain Fischer 344, males, in feed, site: ear canal + Zymbal's gland, lesion: squamous-cell carcinoma + squamous-cell papilloma, dosed 78 weeks, study length 106 weeks
  TD50: 35.8 mg/kg/day
rat, strain Fischer 344, males, in feed, site: liver + Zymbal's gland, lesion: hepatocellular carcinoma + neoplastic nodule + squamous-cell carcinoma, dosed 78 weeks, study length 106 weeks
  TD50: 3.55 mg/kg/day
rat, strain Fischer 344, males, in feed, site: liver, lesion: hepatocellular adenoma + hepatocellular carcinoma + neoplastic nodule, dosed 78 weeks, study length 106 weeks
  TD50: 3.7 mg/kg/day
rat, strain Fischer 344, males, in feed, site: liver, lesion: hepatocellular carcinoma + neoplastic nodule, dosed 78 weeks, study length 106 weeks
  TD50: 3.7 mg/kg/day
rat, strain Fischer 344, males, in feed, site: liver, lesion: hepatocellular carcinoma, dosed 78 weeks, study length 106 weeks
  TD50: 4.67 mg/kg/day

## O=C(C1CCCCC1)N1CC(=O)N2CCc3ccccc3C2C1 (centres undefined)
hamster, strain Syrian Golden, females, by gavage, site: any site (literature study), lesion: several types, types named in the paper, dosed 80 weeks, study length 80 weeks
  TD50: 250 mg/kg/day (inactive)
hamster, strain Syrian Golden, males, by gavage, site: any site (literature study), lesion: several types, types named in the paper, dosed 80 weeks, study length 80 weeks
  carcinogen call: negative (inactive)
rat, strain Sprague-Dawley, females, by gavage, site: any site (literature study), lesion: several types, types named in the paper, dosed 104 weeks, study length 130 weeks
  carcinogen call: negative (inactive)
rat, strain Sprague-Dawley, males, by gavage, site: any site (literature study), lesion: several types, types named in the paper, dosed 104 weeks, study length 130 weeks
  carcinogen call: negative (inactive)

## CN(C)/C=N/c1nnc(/C=C/c2ccc([N+](=O)[O-])o2)o1
rat, strain Sprague-Dawley, females, in feed, site: any site (literature study), lesion: several types, types named in the paper, dosed 46 weeks, study length 66 weeks
  TD50: 20.6 mg/kg/day
rat, strain Sprague-Dawley, females, in feed, site: duodenum, lesion: adenocarcinoma, dosed 46 weeks, study length 66 weeks
  TD50: 336 mg/kg/day
rat, strain Sprague-Dawley, females, in feed, site: duodenum, lesion: adenomatous polyp, dosed 46 weeks, study length 66 weeks
  TD50: 336 mg/kg/day
rat, strain Sprague-Dawley, females, in feed, site: forestomach, lesion: squamous-cell papilloma, dosed 46 weeks, study length 66 weeks
  TD50: 221 mg/kg/day
rat, strain Sprague-Dawley, females, in feed, site: lung, lesion: alveolar-cell carcinoma, dosed 46 weeks, study length 66 weeks
  TD50: 683 mg/kg/day
rat, strain Sprague-Dawley, females, in feed, site: mammary gland, lesion: adenocarcinoma, dosed 46 weeks, study length 66 weeks
  TD50: 20.4 mg/kg/day
rat, strain Sprague-Dawley, females, in feed, site: mammary gland, lesion: several types, types named in the paper, dosed 46 weeks, study length 66 weeks
  TD50: 22.4 mg/kg/day

## O=S1(=O)CCCO1
rat, strain Charles River CD (Sprague-Dawley), females, by gavage, site: all sites, lesion: granulocytic leukemia, dosed 46 weeks, study length 60 weeks
  TD50: 18.6 mg/kg/day
rat, strain Charles River CD (Sprague-Dawley), females, by gavage, site: cerebellum, lesion: malignant glioma, dosed 46 weeks, study length 60 weeks
  TD50: 7.2 mg/kg/day
rat, strain Charles River CD (Sprague-Dawley), females, by gavage, site: cerebrum, lesion: malignant glioma, dosed 46 weeks, study length 60 weeks
  TD50: 4.06 mg/kg/day
rat, strain Charles River CD (Sprague-Dawley), females, by gavage, site: mammary gland, lesion: adenocarcinoma, dosed 46 weeks, study length 60 weeks
  TD50: 4.13 mg/kg/day
rat, strain Charles River CD (Sprague-Dawley), females, by gavage, site: small intestine, lesion: adenocarcinoma, dosed 46 weeks, study length 60 weeks
  TD50: 31.7 mg/kg/day
rat, strain Charles River CD (Sprague-Dawley), males, by gavage, site: all sites, lesion: granulocytic leukemia, dosed 46 weeks, study length 60 weeks
  TD50: 23.5 mg/kg/day
rat, strain Charles River CD (Sprague-Dawley), males, by gavage, site: cerebellum, lesion: malignant glioma, dosed 46 weeks, study length 60 weeks
  TD50: 4.75 mg/kg/day
rat, strain Charles River CD (Sprague-Dawley), males, by gavage, site: cerebrum, lesion: malignant glioma, dosed 46 weeks, study length 60 weeks
  TD50: 3.64 mg/kg/day
rat, strain Charles River CD (Sprague-Dawley), males, by gavage, site: small intestine, lesion: adenocarcinoma, dosed 46 weeks, study length 60 weeks
  TD50: 15.4 mg/kg/day

Source: PubChem BioAssay AID1745844 (Carcinogenic Potency Database (CPDB), 2022)
